{
  "source": "patent US20160375050A1",
  "about": "“METHODS AND COMPOSITIONS INVOLVING CHITOSAN NANOPARTICLES” (The Board of Regents of the University of Texas System, priority 2007, published 2016)",
  "key": {"[1]": {"system": "EZH2 promoter in EAhy926 endothelial cell line", "assay": "EZH2 promoter luciferase reporter assay", "format": "cell-based, human", "conditions": "EAhy926, 6 hours, EGF 25 ng/mL, VEGF 50 ng/mL", "procedure": "Relative activity of the EZH2 promoter in the EAhy926 cell line was determined by luciferase reporter assay. Cells were transfected in low-serum medium (0.5% serum) with the firefly luciferase plasmid, either empty vector (pGL3-Basic) or the EZH2 promoter construct vector (EZH2prom-pGL3-Basic), in 12-well plates using Effectene® Transfection Reagent from Qiagen (Valencia, Calif.). Cells were then maintained in low-serum medium for 18 hours, washed in warm 1× phosphate-buffered saline (PBS), and treated in triplicate at 37° C. for 6 hours. Treatments included recombinant human (rh) EGF (EGF; 25 ng/mL; Invitrogen) and rhVEGF165 (VEGF; 50 ng/mL; Peprotech, Rocky Hill, N.J.), each in fresh medium plus 0.5% serum, fresh complete medium plus 10% serum, and conditioned media from immortalized ovarian surface epithelium (105E120) and from papillary serous ovarian cancer cell lines (OVCA420 and SKOV3). Medium in control wells (pGL3-Basic transfectants) was not changed on the day of treatment. Following treatment, cells were washed briefly in cold 1×PBS and lysates were collected and processed using the Dual-Luciferase® Reporter Assay System (Promega Corp.). Firefly luciferase readings were averaged and normalized to pGL3-Basic control readings for percent fold changes."}, "VASH1 mRNA in MOEC": {"system": "VASH1 mRNA in MOEC", "assay": "VASH1 mRNA after EZH2 gene silencing, real-time qRT-PCR", "format": "cell-based, mouse", "conditions": "72 hours after transfection", "procedure": "Relative expression of EZH2 and VASH1 mRNA in HUVEC and MOEC cells was determined by real-time quantitative RT-PCR. Cells were seeded at 1.0×10^4 cells per well in 96-well plates in complete medium and incubated at 37° C. for 24 hours, and then in low-serum medium (0.5% serum) for 18 hours, minus EGF and VEGF supplements where appropriate. After washing with warm PBS, cells were treated in triplicate at 37° C. for six hours with EGF (25 ng/mL) and VEGF (50 ng/mL), each in fresh medium (lacking supplemental EGF or VEGF) with no serum, fresh complete medium plus 2% serum, and conditioned media. Relative expression of VASH1 mRNA in MOEC cells was determined by transfecting cells with EZH2 mouse siRNA. Samples were collected after 72 hours of transfection. Real-time quantitative RT-PCR was performed using 50 ng total RNA isolated from treated cells using the RNeasy Mini Kit (Qiagen). Relative expression values were obtained using the average of three reference genes and the 2^−ΔΔCT method as described previously, and normalized to control for percent fold changes (Donninger et al., 2004)."}},
  "data": [
    {"substance": "EGF: recombinant human EGF, Invitrogen (NSDSECPLSHDGYCLHDGVCMYIEALDKYACNCVVGYIGERCQYRDLKWWELR; Epidermal growth factor; UniProt P01133 971-1023, looked up)", "values": [
      {"measurement": "EZH2 promoter activity", "setting": "[1]", "value": "significant increase"}
    ]},
    {"substance": "mouse EZH2 siRNA: Murine EZH2 siRNA, target 5′-GCACAAGTCATCCCGTTAATT-3′ (SEQ ID NO: 15), transfected in vitro (target site or template, no part of the molecule; listed as DNA, chemistry not given here)", "values": [
      {"measurement": "increase in VASH1 mRNA compared to control siRNA treated cells", "setting": "VASH1 mRNA in MOEC", "value": 2.8, "unit": "fold"}
    ]},
    {"substance": "VEGF", "values": [
      {"measurement": "EZH2 promoter activity", "setting": "[1]", "value": "significant increase"}
    ]}
  ]
}
